Laboratory results from US20210276967A1 (OSPEDALE SAN RAFFAELE S.R.L., priority 2018, published 2021).

test system: HBV; assay: HBV inhibition in HepAD38 cells, extracellular HBV DNA by direct qPCR; type: cell-based, hepatitis B virus; conditions: Hepatitis B virus; 0.1 μM, HepAD38, 96 hours; read-out: HBV inhibition % (conc μM)
From the text: HepAD38 cell line (Ladner et al., Antimicrob Agents Chemother, 1997, 41, 1715-20) was used for HBV inhibition assays. HepAD38 is a subclone, derived from hepatoblastoma cell line HepG2 (ATCC® Number: HB-8065™), that expresses HBV genome under the transcriptional control of a tetracycline-responsive promoter in a TET-OFF system: addition of tetracycline (TET) or doxycycline suppresses HBV replication, while its removal switches on the process allowing HBV viral particles release in the cell supernatant. HepAD38 cell line is maintained in DMEM/F12, supplemented with 10% of fetal bovine serum, 1% of glutamine, 1% of penicillin/streptomycin, 0.4 mg/ml G418 and 0.3 ug/ml tetracycline. For the HBV inhibition assay, doxycycline-free medium is used in order to allow virion production.
HBV inhibition activity in vitro was performed in 96 multiwell plates. During the initial (primary) screening compounds were first tested in triplicates at concentrations of 0.1 μM, 0.5 μM and 1 μM. For selected compounds, an 8-point dose-response curve was obtained using 1:2 serial dilutions (starting from 2.5 μM, 1.25 μM or 0.4 μM, depending on the degree of inhibition observed during the primary screening). From the dose-response curves, half maximal effective concentration (EC50) could be calculated (see also below).
In more detail, compounds—typically dissolved in DMSO stock solutions—were diluted to 2× the final desired concentration in 100 μl of the above medium (without doxycycline) and plated in three replicates in the 96-well plates.
Simultaneously, HepAD38 cells—extensively pre-washed in tetracycline-free medium in order to induce HBV production—were suspended at 2*10^4 cells in 100 μl of tetracycline-free medium and added to each well of the plate, to yield a final assay volume of 200 μl.
DMSO, used for stock solutions and compounds dilutions, is always present in the assays at a final concentration of 0.5%.
Plates were then incubated 96 hours at 37° C. and then subjected to cell viability assays and extracellular HBV quantification, in order to evaluate both the cytotoxic potential and the anti-viral activity of compounds.
Cytotoxicity was assessed by a commercial fluorescence assay that measures the metabolic activity of cells, directly related to cell viability (Cell Titer Blue, Promega). For each compound, cytotoxicity was evaluated at the same concentration employed to evaluate its anti-HBV activity. Anti-HBV activity was evaluated by quantification of extracellular HBV DNA with direct qPCR. In particular, supernatant was collected and centrifuged for cell debris clarification, viral DNA was extracted from virions by addition of lysis buffer (1 mM 1,4-dithiothreitol, 0.2% sodium dodecyl sulphate) and incubated at 95° C. for 10 min. Samples were then diluted 1:40 and real time PCR amplification was performed with SYBR green assay (Power SYBR™ Green PCR Master Mix-Thermo Fisher Scientific) and specific HBV primer (HBV-DF:5′-[…]-3′ (SEQ ID No. 1), HBV-DR:5′-[…]-3′ (SEQ ID No. 2)).
All HBV inhibition or antiviral activity data are typically reported in percent (%) relative to a non-treated reference sample. Excel and Graphpad Prism programs are typically used for data elaboration and EC50 calculation.

| Structure (SMILES) | inhibition at 0.1 µM [%] |
| --- | --- |
| Cc1cc(N)c(S(N)(=O)=O)cc1C(=O)Nc1ccc(F)c(C(F)F)c1 [Example E68, 4-amino-N-(3-(difluoromethyl)-4-fluorophenyl)-2-methyl-5-sulfamoylbenzamide] | > 50 |

same assay, conditions: Hepatitis B virus; 0.5 μM, HepAD38, 96 hours; read-out: HBV inhibition % (conc μM)

| Structure (SMILES) | inhibition at 0.5 µM [%] |
| --- | --- |
| Nc1ccc(C(=O)Nc2ccc(F)cc2Cl)cc1S(N)(=O)=O [Example E16, 4-amino-N-(2-chloro-4-fluorophenyl)-3-sulfamoylbenzamide] | < 50 |
| Nc1ccc(C(=O)Nc2cc(F)c(F)c(F)c2)cc1S(=O)(=O)NCC(O)CO (centres unmarked) [Example E56, 4-amino-3-(N-(2,3-dihydroxypropyl)sulfamoyl)-N-(3,4,5-trifluorophenyl)benzamide] | > 50 |
| Nc1ccc(C(=O)Nc2cc(F)c(F)c(F)c2)cc1S(=O)(=O)N[C@H]1CC[C@@H](O)C1 [Example E47, 4-amino-3-(N-((1S,3R)-3-hydroxycyclopentyl)sulfamoyl)-N-(3,4,5-trifluorophenyl)benzamide] | > 50 |
| Nc1ccc(C(=O)Nc2ccc(F)c(C(F)(F)F)c2)cc1S(N)(=O)=O [Example E7, 4-amino-N-(4-fluoro-3-(trifluoromethyl)phenyl)-3-sulfamoylbenzamide] | > 50 |
| Cc1cc(N)c(S(=O)(=O)N[C@@H](C)C(F)(F)F)cc1C(=O)Nc1cc(F)c(F)c(F)c1 [Example E64, (S)-4-amino-2-methyl-N-(3,4,5-trifluorophenyl)-5-(N-(1,1,1-trifluoropropan-2-yl)sulfamoyl)benzamide] | > 50 |
| Nc1ccc(C(=O)Nc2cc(F)c(F)c(F)c2)cc1S(=O)(=O)NC1COC1 [Example E33, 4-amino-3-(N-(oxetan-3-yl)sulfamoyl)-N-(3,4,5-trifluorophenyl)benzamide] | > 50 |
| Nc1ccc(C(=O)Nc2cc(F)c(F)c(F)c2)cc1S(=O)(=O)N[C@@H]1CC[C@@H](O)C1 (stereo in doubt) [Example E26, 4-amino-3-(N-((1R,3R)-3-hydroxycyclopentyl)sulfamoyl)-N-(3,4,5-trifluorophenyl)benzamide] | > 50 |
| Nc1ccc(C(=O)Nc2cc(F)c(F)c(F)c2)cc1S(=O)(=O)N[C@H]1CCNC1 [Example E35, (S)-4-amino-3-(N-(pyrrolidin-3-yl)sulfamoyl)-N-(3,4,5-trifluorophenyl)benzamide] | < 50 |
| C[C@H](NS(=O)(=O)c1cc(C(=O)Nc2cc(F)c(F)c(F)c2)ccc1N)C(F)(F)F [Example E19, (S)-4-amino-N-(3,4,5-trifluorophenyl)-3-(N-(1,1,1-trifluoropropan-2-yl)sulfamoyl)benzamide] | > 50 |
| Nc1ccc(C(=O)Nc2cc(F)c(F)c(F)c2)cc1S(=O)(=O)NC1CC1 [Example E20, 4-amino-3-(N-cyclopropylsulfamoyl)-N-(3,4,5-trifluorophenyl)benzamide] | > 50 |
| Nc1ccc(C(=O)Nc2cc(F)c(F)c(F)c2)cc1S(=O)(=O)N[C@H]1C[C@@H](O)C1 [Example E24] | > 50 |
| Nc1ccc(C(=O)Nc2ccc(F)c(F)c2F)cc1S(N)(=O)=O [Example E14, 4-amino-3-sulfamoyl-N-(2,3,4-trifluorophenyl)benzamide] | < 50 |
| Nc1ccc(C(=O)Nc2ccc(Cl)nc2)cc1S(N)(=O)=O [Example E11, 4-amino-N-(6-chloropyridin-3-yl)-3-sulfamoylbenzamide] | < 50 |
| CC(C)(C)OC(=O)N1CCC(NS(=O)(=O)c2cc(C(=O)Nc3cc(F)c(F)c(F)c3)ccc2N)CC1 [Example E27, tert-butyl 4-((2-amino-5-((3,4,5-trifluorophenyl)carbamoyl)phenyl)sulfonamido)piperidine-1-carboxylate] | < 50 |
| Nc1ccc(C(=O)Nc2cc(F)c(F)c(F)c2)cc1S(=O)(=O)N1CCC(O)CC1 [Example E29, 4-amino-3-((4-hydroxypiperidin-1-yl)sulfonyl)-N-(3,4,5-trifluorophenyl)benzamide] | > 50 |
| Cc1cc(NC(=O)c2ccc(N)c(S(=O)(=O)N[C@H]3CC[C@H](O)CC3)c2)ccc1F [Example E46] | > 50 |
| Nc1ccc(C(=O)Nc2ccc(F)c(Cl)c2)cc1S(=O)(=O)N[C@H]1CC[C@H](O)CC1 [Example E43, trans-4-amino-N-(3-chloro-4-fluorophenyl)-3-(N-(4-hydroxycyclohexyl)sulfamoyl)benzamide] | > 50 |
| Nc1ccc(C(=O)Nc2cc(F)c(F)c(F)c2)cc1S(=O)(=O)N1CCC(O)C1 (centres unmarked) [Example E53, 4-amino-3-((3-hydroxypyrrolidin-1-yl)sulfonyl)-N-(3,4,5-trifluorophenyl)benzamide] | > 50 |
| Cc1cc(NC(=O)c2ccc(N)c(S(N)(=O)=O)c2)ccc1F [Example E12, 4-amino-N-(4-fluoro-3-methylphenyl)-3-sulfamoylbenzamide] | > 50 |
| Nc1ccc(C(=O)Nc2cc(F)c(F)c(F)c2)cc1S(=O)(=O)NC1(CO)COC1 [Example E38, 4-amino-3-(N-(3-(hydroxymethyl)oxetan-3-yl)sulfamoyl)-N-(3,4,5-trifluorophenyl)benzamide] | > 50 |
| C[C@@H](NS(=O)(=O)c1cc(C(=O)Nc2cc(F)c(F)c(F)c2)ccc1N)C(F)(F)F [Example E18, (R)-4-amino-N-(3,4,5-trifluorophenyl)-3-(N-(1,1,1-trifluoropropan-2-yl)sulfamoyl)benzamide] | > 50 |
| CC(C)(C)OC(=O)N1CC[C@H](NS(=O)(=O)c2cc(C(=O)Nc3cc(F)c(F)c(F)c3)ccc2N)C1 [Example E34, tert-butyl (S)-3-((2-amino-5-((3,4,5-trifluorophenyl)carbamoyl)phenyl)sulfonamido)pyrrolidine-1-carboxylate] | > 50 |
| Cc1cc(C(=O)Nc2cc(F)c(F)c(F)c2)cc(S(N)(=O)=O)c1N [Example E36, 4-amino-3-methyl-5-sulfamoyl-N-(3,4,5-trifluorophenyl)benzamide] | > 50 |
| Nc1ccc(C(=O)Nc2ccc(F)c(Cl)c2)cc1S(=O)(=O)N1CCC(O)CC1 [Example E54, 4-amino-N-(3-chloro-4-fluorophenyl)-3-((4-hydroxypiperidin-1-yl)sulfonyl)benzamide] | > 50 |
| Nc1ccc(C(=O)Nc2cc(F)c(F)c(F)c2)cc1S(=O)(=O)N[C@@H]1CC[C@H](O)C1 [Example E49, 4-amino-3-(N-((1R,3S)-3-hydroxycyclopentyl)sulfamoyl)-N-(3,4,5-trifluorophenyl)benzamide] | > 50 |
| Nc1ccc(C(=O)Nc2cc(F)c(F)cc2F)cc1S(N)(=O)=O [Example E15, 4-amino-3-sulfamoyl-N-(2,4,5-trifluorophenyl)benzamide] | < 50 |

same assay, conditions: Hepatitis B virus; 1 μM, HepAD38, 96 hours; read-out: HBV inhibition % (conc μM)

| Structure (SMILES) | inhibition at 1 µM [%] |
| --- | --- |
| CC(C)(C)OC(=O)N[C@@H]1CCC[C@@H]1NS(=O)(=O)c1cc(C(=O)Nc2cc(F)c(F)c(F)c2)ccc1N [Example E51, tert-butyl ((1R,2S)-2-((2-amino-5-((3,4,5-trifluorophenyl)carbamoyl)phenyl)sulfonamido)cyclopentyl)carbamate] | > 50 |
| CNc1ccc(C(=O)Nc2cc(F)c(F)c(F)c2)cc1S(N)(=O)=O [Example E1, 4-(methylamino)-3-sulfamoyl-N-(3,4,5-trifluorophenyl)benzamide] | < 50 |

same assay, conditions: Hepatitis B virus; HepAD38, 8-point dose-response; read-out: HBV inh EC50

| Structure (SMILES) | EC50 [µM] |
| --- | --- |
| Cc1cc(N)c(S(N)(=O)=O)cc1C(=O)Nc1ccc(F)c(Cl)c1 [Example E60, 4-amino-N-(3-chloro-4-fluorophenyl)-2-methyl-5-sulfamoylbenzamide] | < 1 |
| Nc1cc(Cl)c(C(=O)Nc2cc(F)c(F)c(F)c2)cc1S(N)(=O)=O [Example E5, 4-amino-2-chloro-5-sulfamoyl-N-(3,4,5-trifluorophenyl)benzamide] | < 1 |

same assay, conditions: concentration not given, HepAD38

| Structure (SMILES) | HBV inhibition % (conc μM) |
| --- | --- |
| Cc1cc(NC(=O)c2cc(S(N)(=O)=O)c(N)cc2C)ccc1F [Example E40, 4-amino-N-(4-fluoro-3-methylphenyl)-2-methyl-5-sulfamoylbenzamide] | A (HBV inhibition greater than 50% at the concentration indicated in the table) |
